US7879880B2, “Substituted aniline derivatives useful as histamine H3 antagonists” (Schering Corporation, priority 2005, dated 2011)
pKi: −log10 of the molar value.

Columns and labels:
[1] = Effects on diet-induced obesity in mice (weight gain and food intake); assay type: in vivo; settings: mice on high-fat diet, 10 mg/kg by gavage once daily for four days, vs vehicle control
Procedure: Lean mice (male, approx. 5 weeks of age, purchased from The Jackson Laboratory, Bar Harbor, Me.) were maintained in individual cages at 22° C. on a 12:12 hr light/dark cycle. The “treated” mice (N=12) were administered a Thiazole Derivative (10 mg/kg) by gavage once daily for four consecutive days. Control mice (N=12) were administered vehicle only, once daily for four days. Both control and treated mice were fed a high-fat diet from days 0 to 4 and body weight and food intake were monitored daily. The percent inhibition for weight gain and food intake was calculated by comparing the increase in weight gain and food intake in the treated mice to the increase in weight gain and food intake in the control mice.
Compound numbers correspond to the compound numbering set forth in the specification.

[2] = target: T1, recombinant human H3 receptor (Homo sapiens, UniProt Q9Y5N1); experiment: H3-receptor binding assay, recombinant human receptor expressed in HEK-293 cells; settings: [3H]R-α-methyl histamine or [3H]Nα-methyl histamine
T1 construct: expressed in transfected cells; host or cells: HEK-293 (human embryonic kidney) cells
T1 sequence (Q9Y5N1 whole entry): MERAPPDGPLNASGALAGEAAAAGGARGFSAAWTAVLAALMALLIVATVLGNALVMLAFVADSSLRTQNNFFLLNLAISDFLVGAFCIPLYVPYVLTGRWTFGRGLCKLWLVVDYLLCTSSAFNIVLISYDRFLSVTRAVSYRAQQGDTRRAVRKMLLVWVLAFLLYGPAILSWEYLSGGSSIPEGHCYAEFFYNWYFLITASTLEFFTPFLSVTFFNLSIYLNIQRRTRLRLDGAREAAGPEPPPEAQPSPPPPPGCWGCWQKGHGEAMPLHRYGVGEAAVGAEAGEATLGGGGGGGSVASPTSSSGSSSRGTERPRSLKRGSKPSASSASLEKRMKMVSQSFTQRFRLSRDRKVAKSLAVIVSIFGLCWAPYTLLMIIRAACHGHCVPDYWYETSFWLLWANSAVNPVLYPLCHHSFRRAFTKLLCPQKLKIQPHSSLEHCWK
Procedure: (§1) The source of the H3 receptors in this experiment was guinea pig brain. Alternatively, the source of H3 receptors was recombinant human receptor, expressed in HEK-293 (human embryonic kidney) cells.
(§2) All compounds to be tested were dissolved in DMSO and then diluted into the binding buffer (50 mM Tris, pH 7.5) such that the final concentration was 2 μg/ml with 0.1% DMSO. Membranes were then added (400 μg of protein, 5 μg in the case of recombinant human receptor) to the reaction tubes. The reaction was started by the addition of 3 nM [^3H]R-α-methyl histamine (8.8 Ci/mmol) or 3 nM [^3H]N^α-methyl histamine (80 Ci/mmol) and continued under incubation at 30° C. for 30 min. Bound ligand was separated from unbound ligand by filtration, and the amount of radioactive ligand bound to the membranes was quantitated by liquid scintillation spectrometry. All incubations were performed in duplicate and the standard error was always less than 10%. Compounds that inhibited more than 70% of the specific binding of radioactive ligand to the receptor were serially diluted to determine a Ki (nM).

[3] = target: T2, guinea pig brain H3 receptor (Cavia porcellus, UniProt Q9JI35); experiment: H3-receptor binding assay, guinea pig brain membranes; settings: [3H]R-α-methyl histamine or [3H]Nα-methyl histamine
T2 construct: The brain tissue was homogenized with a solution of 50 mM Tris, pH 7.5; from tissue; host or cells: guinea pig brain membranes
T2 sequence (Q9JI35 whole entry): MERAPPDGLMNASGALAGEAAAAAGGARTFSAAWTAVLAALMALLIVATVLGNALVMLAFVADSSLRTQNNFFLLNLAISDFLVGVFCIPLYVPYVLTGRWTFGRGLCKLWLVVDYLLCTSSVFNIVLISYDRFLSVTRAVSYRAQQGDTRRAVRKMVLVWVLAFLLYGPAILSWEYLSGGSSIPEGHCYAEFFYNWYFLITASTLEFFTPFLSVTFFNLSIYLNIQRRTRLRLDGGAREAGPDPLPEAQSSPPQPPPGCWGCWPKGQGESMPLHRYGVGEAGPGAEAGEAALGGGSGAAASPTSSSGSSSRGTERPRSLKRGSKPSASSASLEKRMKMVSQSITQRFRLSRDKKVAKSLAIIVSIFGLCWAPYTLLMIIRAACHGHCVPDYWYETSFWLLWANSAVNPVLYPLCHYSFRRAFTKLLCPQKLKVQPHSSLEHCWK
Procedure: as §1
The animals weighed 400-600 g. The brain tissue was homogenized with a solution of 50 mM Tris, pH 7.5. The final concentration of tissue in the homogenization buffer was 10% w/v. The homogenates were centrifuged at 1,000×g for 10 min. in order to remove clumps of tissue and debris. The resulting supernatants were then centrifuged at 50,000×g for 20 min. in order to sediment the membranes, which were next washed three times in homogenization buffer (50,000×g for 20 min. each). The membranes were frozen and stored at −70° C. until needed.
as §2, with “All incubations were performed in duplicate and the standard error was always less than 10%. Compounds that inhibited more than 70% of the specific binding of radioactive ligand to the receptor were serially diluted to determine a Ki (nM).” left out

Row | SMILES | Food intake Inhibition (%) [1] | Weight Gain Inhibition (%) [1] | pKi [2] | pKi [3]
1 | Nc1cc(Nc2ccc(C(=O)N3CCC(n4c(-c5ccccn5)nc5cccnc54)CC3)cc2)ccn1 [Compound 160A] | 18.3% | 33.0% |  | 
2 | O=C(c1ccc(Nc2ccncc2)cc1)N1CCC(n2c(-c3ccccn3)nc3cccnc32)CC1 [Compound 59A] | 1.1% | 21.0% | 8.52 | 
3 | Cc1cccc(C)c1NC(=O)N1CCN(C(=O)c2ccc(Nc3ccncc3)cc2)CC1 [Compound 54A] |  |  |  | 8.70
